Experiments:
[1] = system: human keratinocytes, strain K02-1H4; assay: Cytotoxicity, Neutral Red assay on human keratinocytes strain K02-1H4; type: cell-based; settings: for Viability (72 h), % of control: Example 12, K02-1H4, 72 h
Procedure: In addition, added to the cytotoxicity study was an assay on human keratinocytes, strain K02-1H4, in order to confirm that the concentrations were nontoxic on the target cells.
[…] […] The cell viability was determined by means of a Neutral Red assay.
Added to the cytotoxicity study was an assay on human keratinocytes (strain K02-1H4) in order to confirm the nontoxicity of the concentrations on the “target” cells. Table 24 below groups together all the results (cell viability as % of control).

[2] = system: PGE-2; assay: PMA-induced release of PGE-2 by human keratinocytes; type: cell-based; settings: for PGE-2 (extracellular): Example 12, K02-1H6, PMA 10 ng/ml, 48 h + 24 h
Procedure: The principle of the assay is based on evaluating the production of pro-inflammatory cytokines by human keratinocytes in response to an irritative stress. […]
Given the lack of effect of IFN-γ on the production and release of PGE-2, the anti-inflammatory effect of the active agents was studied on normal human keratinocytes (strain K02-1H6) stimulated with PMA. Each active agent was tested at 4 concentrations:
1. Treatment of the cells, for 48 h, with the product being studied before induction of the irritative stress.
2. Induction of the irritative stress: PMA (10 ng/ml).
3. Incubation of the “activated” cells, for 24 h, in the presence of the product being studied.
4. Assay of PGE-2 (extracellular) and assay of cellular proteins.
Tables 37 to 39 below group together the amounts of PGE-2 (pg/μg prot.) obtained after activation of the cells (+PMA), and also the basal amounts (−PMA). The PMA-induced production of PGE-2 and the anti-inflammatory activity (AIA) were calculated, for each concentration, according to: PGE-2 production=[(PGE-2(+PMA)−PGE-2(−PMA)] AIA=[(PGE-2 production(control cells)−PGE-2 production(treated cells))/PGE-2 production(control cells)]×100

CC1OC(O[C@@H]2C(CO)OC(OCC3OC(OC(=O)C4CC(C)(C)CC5C6=CCC7C(CC(O)C8C(C)(CO)C(O)C(O)CC78C)C6(C)CCC45)[C@@H](O)C(O)[C@@H]3O)[C@@H](O)C2O)[C@@H](O)C(O)[C@H]1O (stereo partly drawn) [Terminoloside, 1-[O-α-L-rhamnopyranosyl-(1-4)-O-β-glucopyranosol-(1-6)]-O-β-D-glucopyranose 2α,3β,6β,23-tetrahydroxyolea-12-en-28-oate]
Viability (72 h), % of control ([1]; 0.25 mg/ml): 101% | Viability (72 h), % of control ([1]; 0.5 mg/ml): 103% | Viability (72 h), % of control ([1]; 0.75 mg/ml): 103% | Viability (72 h), % of control ([1]; 1.0 mg/ml): 102% | Viability (72 h), % of control ([1]; 2.5 mg/ml): 99% | Viability (72 h), % of control ([1]; 5 mg/ml): 96% | Viability (72 h), % of control ([1]; 10 mg/ml): 69% | nontoxic concentrations ([1]; K02-1H4, 72 h of incubation): less than or equal to 2.5 mg/ml | PGE-2 production (+PMA minus −PMA) ([2]; Example 12, 0.1 mg/ml): 494.2 | PGE-2 production (+PMA minus −PMA) ([2]; Example 12, 0.25 mg/ml): 441.0 | PGE-2 production (+PMA minus −PMA) ([2]; Example 12, 0.5 mg/ml): 279.9 | PGE-2 production (+PMA minus −PMA) ([2]; Example 12, 1 mg/ml): 115.2 | PGE-2 (extracellular) ([2]; 0.1 mg/ml): 660.0 pg/μg prot | PGE-2 (extracellular) ([2]; 0.25 mg/ml): 606.80 pg/μg prot | PGE-2 (extracellular) ([2]; 0.5 mg/ml): 445.7 pg/μg prot | PGE-2 (extracellular) ([2]; 1 mg/ml): 321.0 pg/μg prot | Anti-inflammatory activity (%), PGE-2 ([2]; Example 12, PMA 10 ng/ml, 1 mg/ml): 68.6% | inhibition at 100 µg/mL ([2]; Homo sapiens, Keratinocyte, Example 12, PMA 10 ng/ml, 0.1 mg/ml, read-out: Anti-inflammatory activity (%), PGE-2): 0% | inhibition at 250 µg/mL ([2]; Homo sapiens, Keratinocyte, Example 12, PMA 10 ng/ml, 0.25 mg/ml, read-out: Anti-inflammatory activity (%), PGE-2): 10.8% | inhibition at 500 µg/mL ([2]; Homo sapiens, Keratinocyte, Example 12, PMA 10 ng/ml, 0.5 mg/ml, read-out: Anti-inflammatory activity (%), PGE-2): 43.4% | inhibition at 1000 µg/mL ([2]; Homo sapiens, Keratinocyte, Example 12, PMA 10 ng/ml, 1 mg/ml, read-out: Anti-inflammatory activity (%), PGE-2): 69%
